# Biological target: T1, MAGE-A11:PCF11 interaction (GST-MAGE-A11 MHD and FAM-PCF11_4) (Homo sapiens, UniProt P43364)
# T1 construct: GST-MAGE-A11 MHD (human MAGE-A11 MHD amino acid 218-429); made in house; host or cells: E. coli BL21(DE3)
# T1 sequence (P43364 218-429): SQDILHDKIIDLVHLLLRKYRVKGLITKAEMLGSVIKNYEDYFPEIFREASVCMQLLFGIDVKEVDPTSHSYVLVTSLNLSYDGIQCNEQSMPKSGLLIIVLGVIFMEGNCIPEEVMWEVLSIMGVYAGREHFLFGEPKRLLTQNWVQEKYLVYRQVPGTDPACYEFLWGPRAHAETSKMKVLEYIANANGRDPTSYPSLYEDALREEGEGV
# Assay: TR-FRET dose response test of compounds for disruption of MAGE-A11:PCF11 binding
# Settings: Dose response TR-FRET screening of nine scaffold groups against MAGE-A11:PCF11; read-out: consensus IC50
# Method in brief: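 Competition of compounds against binding of FAM-PCF11_4 peptide to GST-MAGE-A11 MHD, detected with Tb-anti-GST, in 50 mM Tris pH 7.5, 20 mM MgCl2, 0.1 mg/ml BSA, 1 mM DTT. 90 min at ~25 °C; 520/490 nm emission ratio (340 nm excitation) fitted for IC50.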
row,Compound,IC50 [µM]
1,c1ccc(-c2ccc3c(NCCCNCc4cccc5c4OCO5)ccnc3c2)cc1 [SJ000311284-1],22.2
2,c1cc(CNCCCNc2ccnc3cc(CC4CCCCC4)ccc23)c2c(c1)OCO2 [SJ000311252-1],16
3,COc1cccc(CNCCCNc2ccnc3cc(CC4CCCCC4)ccc23)c1O [SJ000311251-1],29.2
4,Cc1ccc(S(=O)(=O)c2nc(-c3cccc(C)c3)oc2N2CCOCC2)cc1 [SJ000027480-1],11.2
5,COc1ccc(F)cc1CNCCCNc1ccnc2cc(-c3ccccc3)ccc12 [SJ000311285-1],28.2
6,CC(C)CCc1ccc2c(NCCCNCc3cccc4c3OCO4)ccnc2c1 [SJ000311248-1],27.7
7,CC(C)(C)c1ccc(Oc2ccc3c(NCCCNCc4cccc5c4OCO5)ccnc3c2)cc1 [SJ000311236-1],8.67
8,Cc1ccc(S(=O)(=O)c2nc(-c3ccccc3Cl)oc2N2CC(C)OC(C)C2)cc1 (stereo not drawn) [SJ000329066-1],13
9,COc1ccc(F)cc1CNCCCNc1ccnc2cc(Oc3ccc(C(C)(C)C)cc3)ccc12 [SJ000311237-1],6.29
10,Clc1ccc2c(NCCCNCc3ccc(-c4ccccc4)cc3)ccnc2c1 [SJ000523064-1],34.9
11,CCCn1c(=O)c2[nH]c(-c3ccccc3)nc2n(CCC)c1=O [SJ000832251-1],> 70
12,COc1cccc(CNCCCNc2ccnc3cc(Cc4ccc(F)cc4Cl)ccc23)c1O [SJ000311323-1],17.6
13,COc1cccc(CNCCCNc2ccnc3cc(-c4cccc5ccccc45)ccc23)c1O [SJ000311275-1],16
14,COc1cccc(CNCCCNc2ccnc3cc(Oc4ccc(C(C)(C)C)cc4)ccc23)c1O [SJ000311235-1],7.65
15,c1ccc(Oc2ccc3c(NCCCNCc4cccc5c4OCO5)ccnc3c2)cc1 [SJ000311208-1],30.1
16,FC(F)(F)c1ccc2c(NCCCNCc3ccc4[nH]ccc4c3)ccnc2c1 [SJ000521054-1],0.397
17,COc1ccc(F)cc1CNCCCNc1ccnc2cc(Oc3ccccc3)ccc12 [SJ000311209-1],29
18,Cc1ccc(S(=O)(=O)c2nc(-c3cccc([N+](=O)[O-])c3)oc2N2CCOCC2)cc1 [SJ000027482-1],9.54

row,Compound,IC50 [µM]
1,CCCCOc1ccc(N(C(C)=O)C2=C(Cl)C(=O)c3ccccc3C2=O)cc1 [SJ000032717-1],8.71
2,COc1cccc(CNCCCNc2ccnc3cc(-c4ccc(C(C)(C)C)cc4)ccc23)c1O [SJ000311287-1],4.67
3,c1ccc(CCc2ccc3c(NCCCNCc4cccc5c4OCO5)ccnc3c2)cc1 [SJ000311257-1],62.3
4,COc1cccc(CNCCCNc2ccnc3cc(Cc4c(Cl)cccc4Cl)ccc23)c1O [SJ000311315-1],13.8
5,NC1=C(Nc2ccc(Cl)cc2)C(=O)c2ccccc2C1=O [SJ000562630-1],53.8
6,Cc1cc(C)c(CNCCCNc2ccnc3cc(Cl)ccc23)c(C)c1 [SJ000520911-2],68.1
7,COc1ccc(F)cc1CNCCCNc1ccnc2cc(Oc3cccc(N(C)C)c3)ccc12 [SJ000311233-1],5.63
8,O=C1OCC(c2ccc(OC(F)F)cc2)=C1c1ccc([N+](=O)[O-])cc1 [SJ000368145-1],40.8
9,C=CCn1c(=O)c2c(nc(-c3ccc(S(=O)(=O)O)cc3)n2C)n(C)c1=O [SJ000287614-4],> 70
10,COc1ccc(F)cc1CNCCCNc1ccnc2cc(Cc3ccc(F)cc3Cl)ccc12 [SJ000311325-1],17.6
11,COc1cccc(CNCCCNc2ccnc3cc(-c4ccc5c(c4)OCO5)ccc23)c1O [SJ000311291-1],24.6
12,O=C1c2ccccc2NC(c2ccc(F)c(F)c2)N1CCCN1CCOCC1 (stereo not drawn) [SJ000803757-1],58.4
13,COc1cccc(CNCCCNc2ccnc3cc(Oc4ccc(F)cc4)ccc23)c1O [SJ000311223-1],61.9
14,CCC(COC(C)=O)NC1=C(Cl)C(=O)c2ccccc2C1=O (stereo not drawn) [SJ000149466-1],17.2
15,CCC(CC)c1ccc2c(NCCCNCc3cc(F)ccc3OC)ccnc2c1 [SJ000311269-1],43
16,FC(F)(F)c1cc(-c2ccc3c(NCCCNCc4cccc5c4OCO5)ccnc3c2)cc(C(F)(F)F)c1 [SJ000311272-1],9.02
17,Fc1ccc(-c2ccc3c(NCCCNCc4cccc5c4OCO5)ccnc3c2)cc1 [SJ000311240-1],25

# Same assay, conditions: Supplementary Data 3, 59 quinoline compounds; read-out: TR-FRET IC50
row,Compound,IC50 [µM]
1,"FC(F)(F)Oc1ccccc1CN(CCCCNc1ccnc2cc(Cl)ccc12)Cc1ccccc1 [SJ000520459-1, FC(F)(F)Oc1ccccc1CN(CCCCNc2ccnc3cc(Cl)ccc23)Cc4ccccc4]",> 70
2,"Clc1ccc(CN(CCCCNc2ccnc3cc(Cl)ccc23)Cc2ccccc2)c(Cl)c1 [SJ000361207-2, Clc1ccc(CN(CCCCNc2ccnc3cc(Cl)ccc23)Cc4ccccc4)c(Cl)c1]",> 70
3,"CCCN(CCCNc1ccnc2cc(Cl)ccc12)Cc1c(C)cc(C)cc1C [SJ000522749-1, CCCN(CCCNc1ccnc2cc(Cl)ccc12)Cc3c(C)cc(C)cc3C]",> 70
4,"CCCN(CCCNc1ccnc2cc(C(F)(F)F)ccc12)Cc1ccc2[nH]ccc2c1 [SJ000575171-1, CCCN(CCCNc1ccnc2cc(ccc12)C(F)(F)F)Cc3ccc4[nH]ccc4c3]",33.2
5,"Clc1ccc2c(NCCCN(Cc3ccccc3)Cc3ccc4[nH]ccc4c3)ccnc2c1 [SJ000520430-1, Clc1ccc2c(NCCCN(Cc3ccccc3)Cc4ccc5[nH]ccc5c4)ccnc2c1]",41.7
6,"c1coc(CNCCCNc2ccnc3cc(-c4ccc5c(c4)OCO5)ccc23)c1 [SJ000311290-1, C(CNCc1occc1)CNc2ccnc3cc(ccc23)c4ccc5OCOc5c4]",> 70
7,"c1coc(CNCCCNc2ccnc3cc(CC4CCCCC4)ccc23)c1 [SJ000311250-1, C(CNCc1occc1)CNc2ccnc3cc(CC4CCCCC4)ccc23]",54.9
8,"Clc1ccc2c(NCCCCN(Cc3ccccc3)Cc3csc4ccccc34)ccnc2c1 [SJ000520446-1, Clc1ccc2c(NCCCCN(Cc3ccccc3)Cc4csc5ccccc45)ccnc2c1]",> 70
9,"CCCCCCN(CCC)CCCNc1ccnc2cc(C(F)(F)F)ccc12 [SJ000523083-1, CCCCCCN(CCC)CCCNc1ccnc2cc(ccc12)C(F)(F)F]",> 70
10,"Clc1cccc(-c2ccc(CNCCCNc3ccnc4cc(Cl)ccc34)o2)c1 [SJ000523069-1, Clc1cccc(c1)c2oc(CNCCCNc3ccnc4cc(Cl)ccc34)cc2]",> 70
11,CCCCCCNCCCNc1ccnc2cc(C(F)(F)F)ccc12 [SJ000361124-1],57.6
12,"Cc1ccc(C)c(CN(CCCCNc2ccnc3cc(Cl)ccc23)Cc2ccccc2)c1 [SJ000361209-2, Cc1ccc(C)c(CN(CCCCNc2ccnc3cc(Cl)ccc23)Cc4ccccc4)c1]",> 70
13,"FC(F)(F)c1ccc(-c2ccc3c(NCCCNCc4ccco4)ccnc3c2)cc1 [SJ000311278-1, FC(F)(F)c1ccc(cc1)c2ccc3c(NCCCNCc4occc4)ccnc3c2]",22.7
14,"COc1ccc(C(F)(F)F)cc1CN(CCCCNc1ccnc2cc(Cl)ccc12)Cc1ccccc1 [SJ000520444-1, COc1ccc(cc1CN(CCCCNc2ccnc3cc(Cl)ccc23)Cc4ccccc4)C(F)(F)F]",> 70
15,"CCCN(CCCNc1ccnc2cc(C(F)(F)F)ccc12)CC1CCCCC1 [SJ000361268-1, CCCN(CCCNc1ccnc2cc(ccc12)C(F)(F)F)CC3CCCCC3]",> 70
16,"CN(C)c1cccc(Oc2ccc3c(NCCCNCc4ccco4)ccnc3c2)c1 [SJ000311230-1, CN(C)c1cccc(Oc2ccc3c(NCCCNCc4occc4)ccnc3c2)c1]",> 70
17,"CCCN(CCCNc1ccnc2cc(C(F)(F)F)ccc12)CC1CC1 [SJ000361266-1, CCCN(CCCNc1ccnc2cc(ccc12)C(F)(F)F)CC3CC3]",> 70
18,"CCCN(CCCNc1c2ccc(Cl)cc2nc2ccc(OC)cc12)Cc1c(Cl)ccc(Cl)c1Cl [SJ000523021-1, CCCN(CCCNc1c2ccc(Cl)cc2nc3ccc(OC)cc13)Cc4c(Cl)ccc(Cl)c4Cl]",> 70
19,"Clc1ccc2c(NCCCCN(Cc3ccccc3)Cc3ccc4[nH]ccc4c3)ccnc2c1 [SJ000520434-1, Clc1ccc2c(NCCCCN(Cc3ccccc3)Cc4ccc5[nH]ccc5c4)ccnc2c1]",23.4
20,"FC(F)(F)c1ccc2c(NCCCNCc3csc4ccccc34)ccnc2c1 [SJ000521061-1, FC(F)(F)c1ccc2c(NCCCNCc3csc4ccccc34)ccnc2c1]",> 70
21,"CCCN(CCCNc1ccnc2cc(Cl)ccc12)Cc1ccc2ccccc2c1 [SJ000523040-1, CCCN(CCCNc1ccnc2cc(Cl)ccc12)Cc3ccc4ccccc4c3]",> 70
22,"Cc1cc(C)cc(Cc2ccc3c(NCCCNCc4ccco4)ccnc3c2)c1 [SJ000311318-2, Cc1cc(C)cc(Cc2ccc3c(NCCCNCc4occc4)ccnc3c2)c1]",> 70
23,"CCCN(CCCNc1c2ccc(Cl)cc2nc2ccc(OC)cc12)Cc1ccc2[nH]ccc2c1 [SJ000522732-2, CCCN(CCCNc1c2ccc(Cl)cc2nc3ccc(OC)cc13)Cc4ccc5[nH]ccc5c4]",> 70
24,"CCCN(CCCNc1ccnc2cc(Cl)ccc12)Cc1cc(C(F)(F)F)ccc1OC [SJ000523012-1, CCCN(CCCNc1ccnc2cc(Cl)ccc12)Cc3cc(ccc3OC)C(F)(F)F]",> 70
25,"Clc1ccc(Oc2ccc3c(NCCCNCc4ccco4)ccnc3c2)cc1 [SJ000311226-1, Clc1ccc(Oc2ccc3c(NCCCNCc4occc4)ccnc3c2)cc1]",> 70

# Reference: article PMC7529893, “Structural basis for substrate recognition and chemical inhibition of oncogenic MAGE ubiquitin ligases” (Nature Communications, 2020)
